± gives the expanded uncertainty stated by the source.
Tests used:
[1] = xn = mol fraction of the nth substance listed; details: 298.15 K, 98.8 kPa, Liquid, Vibrating tube method
[2] = excess molar enthalpy (molar enthalpy of mixing); xn = mol fraction of the nth substance listed; details: 298.15 K, 98.8 kPa, Liquid, Calvet calorimetry
[3] = 298.15 K; 101.33 kPa; Liquid; Vibrating tube method
[4] = refractive index (Na D-line) (dimensionless); details: 298.15 K; 101.33 kPa; Liquid; Standard Abbe refractometry

CCCCCCCCCC(=O)OC [methyl decanoate] + CCCCCCCCCCCCCC
Details | excess molar enthalpy, [2] [kcal/mol] | mass density, [1] [kg/m3]
x1 = 0.0498 | – | 763.35 ± 1
x1 = 0.0633 | 0.0497 ± 0.00215 | –
x1 = 0.0922 | 0.0712 ± 0.00287 | –
x1 = 0.1001 | – | 767.69 ± 1
x1 = 0.1502 | – | 772.18 ± 1
x1 = 0.1577 | 0.108 ± 0.0043 | –
x1 = 0.1964 | 0.126 ± 0.00526 | –
x1 = 0.1998 | – | 776.73 ± 1
x1 = 0.2496 | – | 781.41 ± 1
x1 = 0.258 | 0.152 ± 0.00621 | –
x1 = 0.2999 | – | 786.24 ± 1
x1 = 0.3045 | 0.163 ± 0.00669 | –
x1 = 0.3501 | – | 791.21 ± 1
x1 = 0.3597 | 0.176 ± 0.00717 | –
x1 = 0.3944 | 0.184 ± 0.00741 | –
x1 = 0.4001 | – | 796.26 ± 1
x1 = 0.4492 | 0.19 ± 0.00765 | –
x1 = 0.4498 | – | 801.43 ± 1
x1 = 0.5001 | – | 806.77 ± 1
x1 = 0.5076 | 0.19 ± 0.00765 | –
x1 = 0.5498 | – | 812.19 ± 1
x1 = 0.5535 | 0.185 ± 0.00765 | –
x1 = 0.5997 | – | 817.76 ± 1
x1 = 0.607 | 0.173 ± 0.00693 | –
x1 = 0.6499 | – | 823.51 ± 1
x1 = 0.6586 | 0.161 ± 0.00669 | –
x1 = 0.6999 | – | 829.37 ± 1
x1 = 0.7089 | 0.146 ± 0.00598 | –
x1 = 0.7501 | – | 835.45 ± 1
x1 = 0.7542 | 0.131 ± 0.00526 | –
x1 = 0.799 | – | 841.48 ± 1
x1 = 0.8009 | 0.115 ± 0.00478 | –
x1 = 0.8477 | 0.0946 ± 0.00382 | –
x1 = 0.849 | – | 847.78 ± 1
x1 = 0.8974 | 0.0676 ± 0.00287 | –
x1 = 0.8992 | – | 854.34 ± 1
x1 = 0.9455 | 0.0423 ± 0.00167 | –
x1 = 0.95 | – | 861.12 ± 1
x1 = 1 | 0 ± 0.000239 | 868.02 ± 1

CCCCCCCCCC(=O)OC [methyl decanoate] + CCCCCCCCCCCCCCCC
Details | excess molar enthalpy, [2] [kcal/mol] | mass density, [1] [kg/m3]
x1 = 0.0499 | – | 773.1 ± 1
x1 = 0.0636 | 0.0471 ± 0.00191 | –
x1 = 0.0998 | – | 776.6 ± 1
x1 = 0.1131 | 0.081 ± 0.00335 | –
x1 = 0.1501 | – | 780.26 ± 1
x1 = 0.1619 | 0.107 ± 0.0043 | –
x1 = 0.2 | – | 783.98 ± 1
x1 = 0.201 | 0.129 ± 0.00526 | –
x1 = 0.2497 | – | 787.88 ± 1
x1 = 0.2575 | 0.153 ± 0.00621 | –
x1 = 0.3006 | – | 791.99 ± 1
x1 = 0.3056 | 0.17 ± 0.00693 | –
x1 = 0.3497 | – | 796.11 ± 1
x1 = 0.3584 | 0.184 ± 0.00741 | –
x1 = 0.398 | 0.195 ± 0.00789 | –
x1 = 0.4001 | – | 800.47 ± 1
x1 = 0.4494 | 0.198 ± 0.00813 | –
x1 = 0.45 | – | 804.97 ± 1
x1 = 0.4955 | 0.198 ± 0.00813 | –
x1 = 0.4997 | – | 809.64 ± 1
x1 = 0.5479 | 0.195 ± 0.00789 | –
x1 = 0.5502 | – | 814.55 ± 1
x1 = 0.5983 | 0.188 ± 0.00765 | –
x1 = 0.5995 | – | 819.57 ± 1
x1 = 0.6494 | 0.177 ± 0.00717 | –
x1 = 0.6501 | – | 824.85 ± 1
x1 = 0.6996 | – | 830.28 ± 1
x1 = 0.7034 | 0.163 ± 0.00669 | –
x1 = 0.7497 | – | 835.95 ± 1
x1 = 0.7512 | 0.145 ± 0.00598 | –
x1 = 0.7997 | – | 841.91 ± 1
x1 = 0.8015 | 0.126 ± 0.00526 | –
x1 = 0.8489 | – | 847.93 ± 1
x1 = 0.8493 | 0.102 ± 0.0043 | –
x1 = 0.8992 | – | 854.43 ± 1
x1 = 0.8995 | 0.0707 ± 0.00287 | –
x1 = 0.9494 | – | 861.11 ± 1
x1 = 0.9495 | 0.0366 ± 0.00167 | –
x1 = 1 | 0 ± 0.000239 | 868.02 ± 1

CCCCCCCC [octane]
Details | mass density [kg/m3] | refractive index
[3] | 698.45 ± 1 | –
[4] | – | 1.3955 ± 0.0005

CCCCCCCC [octane] + CCCCCCCCCC(=O)OC
Details | excess molar enthalpy [kcal/mol]
[2], x2 = 0 | 0 ± 0.000239

CCCCCCCCCCCCCC [tetradecane]
Details | mass density [kg/m3] | refractive index
[3] | 759.17 ± 1 | –
[4] | – | 1.4273 ± 0.0005

CCCCCCCCCCCCCC [tetradecane] + CCCCCCCCCC(=O)OC
x2 = 0
Details | excess molar enthalpy [kcal/mol] | mass density [kg/m3]
[1] | – | 759.17 ± 1
[2] | 0 ± 0.000239 | –
